From patent US10941152B2, “Pyrazole compounds as modulators of FSHR and uses thereof” (TOCOPHERX, INC., priority 2014, dated 2021)

Experiments:
[1] = target: T1, FSHR (Homo sapiens, UniProt P23945); assay: EC50 of cyclic AMP production in CHO FSHR cells + EC20 FSH (Assay A); type: cell-based; conditions: cyclic AMP production in CHO FSHR cells + EC20 FSH (0.265 pM), HTRF
T1 construct: expressed in transfected cells; host or cells: CHO (Cho-FSHR-LUC-1-1-43)
T1 sequence (P23945 18-695): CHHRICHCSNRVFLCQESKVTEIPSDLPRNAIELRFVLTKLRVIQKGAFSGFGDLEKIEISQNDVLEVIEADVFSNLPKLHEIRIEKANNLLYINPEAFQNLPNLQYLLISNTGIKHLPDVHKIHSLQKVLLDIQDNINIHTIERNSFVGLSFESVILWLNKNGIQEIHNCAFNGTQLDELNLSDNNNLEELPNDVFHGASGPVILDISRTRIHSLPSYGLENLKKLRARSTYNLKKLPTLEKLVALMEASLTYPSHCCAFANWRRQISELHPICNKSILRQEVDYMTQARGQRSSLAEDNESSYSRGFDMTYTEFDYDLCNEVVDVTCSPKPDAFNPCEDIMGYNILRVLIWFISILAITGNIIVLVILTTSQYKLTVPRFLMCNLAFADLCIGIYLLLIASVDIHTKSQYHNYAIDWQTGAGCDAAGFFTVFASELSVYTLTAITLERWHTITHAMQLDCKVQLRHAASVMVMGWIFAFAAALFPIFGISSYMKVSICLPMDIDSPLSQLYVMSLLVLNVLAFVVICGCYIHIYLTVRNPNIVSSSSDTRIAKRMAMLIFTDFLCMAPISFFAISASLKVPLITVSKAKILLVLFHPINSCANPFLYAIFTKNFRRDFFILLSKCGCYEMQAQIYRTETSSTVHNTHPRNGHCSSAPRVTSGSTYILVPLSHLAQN
Outline: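 CHO cells expressing FSHR, stimulated 1 h at 37° C with compound plus EC20 FSH (0.265 pM final) and 200 μM IBMX. cAMP measured by HTRF (665/620 nm ratio) after 1 h at room temperature; effect expressed relative to maximum response of FSH standard.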

[2] = target: T2, follicle-stimulating hormone (FSH) receptor (Rattus norvegicus, UniProt P20395); assay: Rat granulosa EC50 FSH (Assay B); type: cell-based
T2 construct: endogenous in cells; host or cells: rat granulosa cells
T2 sequence (P20395 18-692): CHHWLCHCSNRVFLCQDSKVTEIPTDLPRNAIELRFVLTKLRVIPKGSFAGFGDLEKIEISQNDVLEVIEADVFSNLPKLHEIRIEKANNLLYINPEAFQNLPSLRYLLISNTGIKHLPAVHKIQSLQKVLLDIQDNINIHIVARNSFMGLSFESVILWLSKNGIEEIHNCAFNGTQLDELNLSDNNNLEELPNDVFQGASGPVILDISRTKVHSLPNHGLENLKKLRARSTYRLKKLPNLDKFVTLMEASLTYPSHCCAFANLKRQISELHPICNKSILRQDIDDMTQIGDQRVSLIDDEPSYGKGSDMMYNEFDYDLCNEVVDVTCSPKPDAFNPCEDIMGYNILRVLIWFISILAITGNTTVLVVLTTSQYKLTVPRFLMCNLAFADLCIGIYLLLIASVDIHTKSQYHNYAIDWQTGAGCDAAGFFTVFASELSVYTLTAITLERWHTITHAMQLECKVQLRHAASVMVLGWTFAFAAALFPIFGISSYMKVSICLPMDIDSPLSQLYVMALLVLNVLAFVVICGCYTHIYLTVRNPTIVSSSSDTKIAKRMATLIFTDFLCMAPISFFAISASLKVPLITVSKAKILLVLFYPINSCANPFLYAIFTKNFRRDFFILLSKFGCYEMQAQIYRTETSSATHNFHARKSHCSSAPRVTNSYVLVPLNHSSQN
Experimental: Example 25. Rat granulosa EC50 FSH (Assay B)
The assay was performed pursuant to the teaching of Yanofsky et al. (2006) Allosteric activation of the follicle-stimulating hormone (FSH) receptor by selective, nonpeptide agonists (JBC 281(19): 13226-13233, which is incorporated by reference in the disclosure of the invention).

| EC50 [1] | EC50 [2] | SMILES |
| --- | --- | --- |
| < 10 nM | 101 to 500 nM | COc1cc2c(cc1-c1cncc(C#N)c1)-c1c(c(C(=O)N3CCOCC3(C)C)nn1-c1cc(F)cc(Cl)c1)CO2 [Compound 28, 5-(1-(3-chloro-5-fluorophenyl)-3-(3,3-dimethylmorpholine-4-carbonyl)-7-methoxy-1,4-dihydrochromeno[4,3-c]pyrazol-8-yl)nicotinonitrile] |
| 10 to 100 nM | 101 to 500 nM | COc1cc2c(cc1-c1cc(C)cnc1OC)-c1c(c(C(=O)N(C)C(C)(C)C)nn1-c1cc(Cl)cc(Cl)c1)CO2 [Compound 189, N-tert-butyl-1-(3,5-dichlorophenyl)-7-methoxy-8-(2-methoxy-5-methylpyridin-3-yl)-N-methyl-1,4-dihydrochromeno[4,3-c]pyrazole-3-carboxamide] |
| < 10 nM | 101 to 500 nM | COc1cc2c(cc1-c1cnn(CC(N)=O)c1)-c1c(c(C(=O)N(C)C(C)(C)C)nn1-c1cc(Cl)cc(Cl)c1)CO2 [Compound 67, 8-(1-(2-amino-2-oxoethyl)-1H-pyrazol-4-yl)-N-tert-butyl-1-(3,5-dichlorophenyl)-7-methoxy-N-methyl-1,4-dihydrochromeno[4,3-c]pyrazole-3-carboxamide] |
| 10 to 100 nM | 101 to 500 nM | COc1cc(OC)cc(-n2nc(C(=O)N3CC[S+]([O-])CC3(C)C)c3c2-c2cc(-c4ccccn4)c(OC)cc2OC3)c1 (stereo not shown) [Compound 41, (1-(3,5-dimethoxyphenyl)-7-methoxy-8-(pyridin-2-yl)-1,4-dihydrochromeno[4,3-c]pyrazol-3-yl)(S-oxo-3,3-dimethylthiomorpholino)methanone] |
| < 10 nM | 10 to 100 nM | COc1cc2c(cc1-c1cncc(C(N)=O)c1C)-c1c(c(C(=O)N(C)C(C)(C)C#N)nn1-c1cc(Cl)cc(Cl)c1)CO2 [Compound 118, 8-(5-carbamoyl-4-methylpyridin-3-yl)-N-(2-cyanopropan-2-yl)-1-(3,5-dichlorophenyl)-7-methoxy-N-methyl-1,4-dihydrochromeno[4,3-c]pyrazole-3-carboxamide] |
| 10 to 100 nM | 101 to 500 nM | COc1cc(F)cc(-n2nc(C(=O)N3CCOCC3(C)C)c3c2-c2cc(-c4ccn(C)n4)c(OC)cc2OC3)c1 [Compound 53, (3,3-dimethylmorpholino)(1-(3-fluoro-5-methoxyphenyl)-7-methoxy-8-(1-methyl-1H-pyrazol-3-yl)-1,4-dihydrochromeno[4,3-c]pyrazol-3-yl)methanone] |
| < 10 nM | 10 to 100 nM | COc1cc2c(cc1-c1cnn(C(N)=O)c1)-c1c(c(C(=O)N(C)C(C)(C)C)nn1-c1cc(Cl)cc(Cl)c1)CO2 [Compound 181, N-tert-butyl-8-(1-carbamoyl-1H-pyrazol-4-yl)-1-(3,5-dichlorophenyl)-7-methoxy-N-methyl-1,4-dihydrochromeno[4,3-c]pyrazole-3-carboxamide] |
| < 10 nM | 10 to 100 nM | COc1cc2c(cc1-c1cncc(C(N)=O)c1)-c1c(c(C(=O)N(C)C(C)(C)C#N)nn1-c1cc(F)cc(Cl)c1)CO2 [Compound 110, 8-(5-carbamoylpyridin-3-yl)-1-(3-chloro-5-fluorophenyl)-N-(2-cyanopropan-2-yl)-7-methoxy-N-methyl-1,4-dihydrochromeno[4,3-c]pyrazole-3-carboxamide] |
| 10 to 100 nM | 101 to 500 nM | COc1cc2c(cc1-c1ccn(C)n1)-c1c(c(C(=O)N(C)C(C)(C)C#N)nn1-c1cc(Cl)cc(Cl)c1)CO2 [Compound 132, N-(2-cyanopropan-2-yl)-1-(3,5-dichlorophenyl)-7-methoxy-N-methyl-8-(1-methyl-1H-pyrazol-3-yl)-1,4-dihydrochromeno[4,3-c]pyrazole-3-carboxamide] |
| < 10 nM | 10 to 100 nM | COc1cc2c(cc1-c1cncc(CO)c1)-c1c(c(C(=O)N(C)C(C)(C)C#N)nn1-c1cc(Cl)cc(Cl)c1)CO2 [Compound 108, N-(2-cyanopropan-2-yl)-1-(3,5-dichlorophenyl)-8-(5-(hydroxymethyl)pyridin-3-yl)-7-methoxy-N-methyl-1,4-dihydrochromeno[4,3-c]pyrazole-3-carboxamide] |
| < 10 nM | 10 to 100 nM | COc1cc(OC)cc(-n2nc(C(=O)N3CC[S+]([O-])CC3(C)C)c3c2-c2cc(-c4cccnc4F)c(OC)cc2OC3)c1 (stereo not shown) [Compound 40, (1-(3,5-dimethoxyphenyl)-8-(2-fluoropyridin-3-yl)-7-methoxy-1,4-dihydrochromeno[4,3-c]pyrazol-3-yl)(S-oxo-3,3-dimethylthiomorpholino)methanone] |
| < 10 nM | 101 to 500 nM | COc1cc2c(cc1-c1cncc(C#N)c1)-c1c(c(C(=O)N3CCC(O)CC3(C)C)nn1-c1cc(F)cc(F)c1)CO2 (stereo not shown) [Compound 50, 5-(1-(3,5-difluorophenyl)-3-(4-hydroxy-2,2-dimethylpiperidine-1-carbonyl)-7-methoxy-1,4-dihydrochromeno[4,3-c]pyrazol-8-yl)nicotinonitrile] |
| < 10 nM | 101 to 500 nM | COc1cc2c(cc1-c1cc(C(N)=O)ncc1F)-c1c(c(C(=O)N(C)C(C)(C)C)nn1-c1cc(Cl)cc(Cl)c1)CO2 [Compound 68, N-tert-butyl-8-(2-carbamoyl-5-fluoropyridin-4-yl)-1-(3,5-dichlorophenyl)-7-methoxy-N-methyl-1,4-dihydrochromeno[4,3-c]pyrazole-3-carboxamide] |
| 10 to 100 nM | > 500 nM | COc1cc(OC)cc(-n2nc(C(=O)N(C)C(C)(C)C)c3c2-c2cc(-c4ccn(C)n4)c(OC)cc2OC3)c1 [Compound 37, N-tert-butyl-1-(3,5-dimethoxyphenyl)-7-methoxy-N-methyl-8-(1-methyl-1H-pyrazol-3-yl)-1,4-dihydrochromeno[4,3-c]pyrazole-3-carboxamide] |
| < 10 nM | 101 to 500 nM | COc1cc(F)cc(-n2nc(C(=O)N3CCOCC3(C)C)c3c2-c2cc(-c4cnn(CC(N)=O)c4)c(OC)cc2OC3)c1 [Compound 73, 2-(4-(3-(3,3-dimethylmorpholine-4-carbonyl)-1-(3-fluoro-5-methoxyphenyl)-7-methoxy-1,4-dihydrochromeno[4,3-c]pyrazol-8-yl)-1H-pyrazol-1-yl)acetamide] |
| 10 to 100 nM | 101 to 500 nM | COc1cc2c(cc1-c1ccn(C)n1)-c1c(c(C(=O)N(C)C(C)(C)C)nn1-c1cc(F)cc(F)c1)CO2 [Compound 48, N-tert-butyl-1-(3,5-difluorophenyl)-7-methoxy-N-methyl-8-(1-methyl-1H-pyrazol-3-yl)-1,4-dihydrochromeno[4,3-c]pyrazole-3-carboxamide] |
| < 10 nM | 10 to 100 nM | COc1cc(Cl)cc(-n2nc(C(=O)N3CCOCC3(C)C)c3c2-c2cc(-c4ccn(C)n4)c(OC)cc2OC3)c1 [Compound 33, (1-(3-chloro-5-methoxyphenyl)-7-methoxy-8-(1-methyl-1H-pyrazol-3-yl)-1,4-dihydrochromeno[4,3-c]pyrazol-3-yl)(3,3-dimethylmorpholino)methanone] |
| < 10 nM | 101 to 500 nM | COc1cc2c(cc1-c1cncc(C(N)=O)c1)-c1c(c(C(=O)N(C)C(C)(C)C)nn1-c1ccccn1)CO2 [Compound 168] |
| < 10 nM | 101 to 500 nM | COc1cc2c(cc1-c1cncc(C(N)=O)c1)-c1c(c(C(=O)N3CCOCC3(C)C)nn1-c1cc(Cl)cc(Cl)c1)CO2 [Compound 169] |
| < 10 nM | 10 to 100 nM | COc1cc2c(cc1-c1cncc(C#N)c1)-c1c(c(C(=O)N3CC[S+]([O-])CC3(C)C)nn1-c1cc(F)cc(F)c1)CO2 (stereo not shown) [Compound 49] |
